Experimental data taken from patent US20190008864A1, “PHARMACEUTICAL COMPOSITION CONTAINING GPR119 LIGAND AS EFFECTIVE INGREDIENT FOR PREVENTING OR TREATING NON-ALCOHOLIC STEATOHEPATITIS” (PHARMEDIX.CO., LTD., priority 2014, published 2019).

How the values were obtained:
SREBP-1c = test: SREBP-1C expression in HepG2 under high glucose/insulin with GPR119 ligand plus AMPK or PKA inhibitor; type: cell-based, human
Description: (§1) Sodium dodecyl sulfate-polyacrylamide gel electrophoresis (SDS-PAGE) was carried out by means of a gel electrophoresis device (Mighty Small SE 250, Hoefer Scientific Instruments, San Francisco) according to a method by Laemmli (UK, Nature 227, 680-685, 1970). Each of cell lysate fractions was diluted with a buffer solution for sample dilution [63 mM Tris (pH. 6.8), 10% glycerol, 2% SDS, 0.0013% bromophenol blue, and 5% β-mercaptoethanol], and then electrophoresed on a 8% or 10% gel in an electrode buffer solution (1 l of the solution contained 15 g of Tris, 72 g of glycerin, and 5 g of SDS). […] Whether total protein contents in samples are the same is determined using anti-β-actin and anti-LaminA/C antibodies. Changes in protein expression amounts were determined by measuring the intensities of chemiluminescence signals on the blot by means of densitometry. […] Each lane was calculated using AlphaEase™ version 5.5 software and background intensity was removed from the calculated values. […]
An experiment therefor was performed as follows. […] Protein expression change was measured using the western blotting method of the method D.

[1] = test system: mouse liver tissue and hepatocyte line; test: Summary statement: mouse liver tissue and hepatocyte line treated with the two GPR119 ligands; type: cell-based
[2] = test system: fatty liver model induced by a high-fat diet; test: Fatty liver model induced by high-fat diet; type: in vivo, C57BL/6J mice; conditions: animal models fed with a high-fat diet
Text: In the present invention, a high fat diet (HFD: 60% fat calories, Research diets, D12492, US) was used as an obesity induction diet.
Six-week-old male C57BL/6J mice (Central Lab. Animal Inc., Seoul, Korea) were acclimated to an experimental environment for one week while being fed solid food, and then randomly divided into a control group and an experimental group for a high-fat diet using a randomized block design. The animal groups were fed for 12 weeks, and thus, fatty liver animal models were established. Fatty liver development was determined according to blood biochemical and histochemical analysis methods. The mice were orally fed with the high-fat diet only for six weeks, and in combination with a GPR119 ligand (10 mg/kg) suspended in 40% PEG400 once a day for five days every week. Choline-deficient, amino acid-fixed high-fat diet steatohepatitis models were prepared by feeding six-week-old male C57BL/6J mice (Central Lab. Animal Inc., Seoul) with a diet containing 60 kcal fat and 0.1% methionine for four weeks. After terminating the experiment, experimental animals fasted for 12 hours or more. Subsequently, blood, liver, and adipose tissues in intestines (epididymal fat, kidney-surrounding fat) were collected from the animals that had been anesthetized with diethyl ether and then washed with a 0.1 M phosphate buffered saline (pH 7.4), followed by being weighed. Blood collected from abdominal aortas was centrifuged at 3000 rpm for 20 minutes using SST tubes to separate serum.
A total cholesterol concentration and a total glucose concentration in serum from each of the aforementioned experimental animals raised for 12 weeks were measured as follows. Each of the total cholesterol concentration and the total glucose concentration in serum was measured twice by means of a commercial measurement kit (Bio Clinical Systems). The amount of alanine aminotransferase (ALT) in blood used as a liver function index was measured by means of a commercial analysis kit (Bio Clinical Systems, Korea).
The collected liver tissues were fixed with a 10% neutral formalin solution and then subjected to a common fixation procedure and dehydration process, followed by embedding the same in paraffin. The embedded tissues were sectioned to a thickness of 4 μm and stained with H&E. The stained tissues were observed by means of an optical microscope.
A predetermined amount of each of the liver tissues was homogenized in liquid nitrogen and a cell lysis buffer in a mortar, and then a lysed tissue solution was transferred to a new tube, followed by vortexing. […] A middle layer of the centrifuged solution was collected and then subjected to protein quantification by the Bradford assay. […] Expression changes of FAS and SREBP-1c proteins were measured by western blotting. […]

SCD-1 mRNA = SCD-1 mRNA expression after T0901317 treatment, HepG2 (real time PCR); type: cell-based, human; conditions: 10 μM T0901317 alone
Description: (§2) A 6-well plate was inoculated with HepG2 (ATCC, US), as a human hepatocyte line, and cultured until confluence in a DMEM medium containing 1% penicillin-streptomycin (Hyclone, US) and 10% fetal bovine serum (Hyclone, US) in a 5% CO2 incubator at 37° C. The medium containing 10% fetal bovine serum of the hepatocyte line grown to confluence was replaced by a medium not containing FBS. The cell line was additionally cultured for 18 hours and used as a sample for an experiment.
(§3) 1 ml of a TRIzol solution was added to each of cell samples to lyse the cells. Subsequently, centrifugation was carried out at 4° C. and 12,000×g for 10 minutes. […]
(§4) A supernatant was transferred to a new tube and then isopropanol was added thereto in the same amount as the supernatant. […] The concentration of an extracted RNA sample was measured at wavelengths of 260 nm and 280 nm by means of a UV/VIS spectrum analyzer (Nanodrop, Thermo, US) and cDNAs were synthesized therefrom using an RT kit. […]
(§5) A medium containing the GPR119 ligand (MBX-2982, GSK-1292263A) was added to a human hepatocyte line (HepG2) cultured as in the method C and, 30 minutes later, the cell line was treated with 10 μM T0901317 for nine hours. […] To investigate mRNA expression change in SCD-1 and FAS, RNAs were isolated and cDNAs were synthesized therefrom as in the method E. mRNA expression levels were measured using real time-PCR as in the method F.

SREBP-1c protein [3] = test: SREBP-1c expression after T0901317 treatment, primary hepatocytes (western blot); type: cell-based, mouse; conditions: 10 μM T0901317 alone, nine hours, compared to no treatment
Description: Liver cells were collected from male C57BL/6 mice (Central Lab. Animal Inc., Seoul) according to a method by Seglen et al. (Exp Cell Res., 82, pp 391-398, 1973). Each C57BL/6 mouse was anesthetized and then the abdomen thereof was incised. Subsequently, the hepatic portal vein was intubated and a gas mixture of 5% CO2 and 95% O2 was insufflated thereinto. A Ca^2+ and Mg^2+-free Hank's balanced salt solution at 37° C. was flowed into the tube to remove blood in the liver. Subsequently, a 0.1% collagenase type IV (Sigma, US) solution was flowed thereinto. The liver tissue was removed from the body, and then prepared into a hepatocyte suspension. The prepared hepatocyte suspension was centrifuged at 50×g for two minutes. […]
Sodium dodecyl sulfate-polyacrylamide gel electrophoresis (SDS-PAGE) was carried out by means of a gel electrophoresis device (Mighty Small SE 250, Hoefer Scientific Instruments, San Francisco) according to a method by Laemmli (UK, Nature 227, 680-685, 1970). […] Whether total protein contents in samples are the same is determined using anti-β-actin and anti-LaminA/C antibodies. Changes in protein expression amounts were determined by measuring the intensities of chemiluminescence signals on the blot by means of densitometry. […] Each lane was calculated using AlphaEase™ version 5.5 software and background intensity was removed from the calculated values. […]

FAS mRNA = FAS mRNA expression after T0901317 treatment, HepG2 (real time PCR); type: cell-based, human; conditions: 10 μM T0901317 alone
Description: as §2, §3, §4, §5

SREBP-1c protein [4] = test: SREBP-1c expression after T0901317 treatment, HepG2 (western blot); type: cell-based, human; conditions: 10 μM T0901317 alone, nine hours, compared to no treatment
Description: as §2
as §1, with “1970).” for “1970). Each of cell lysate fractions was diluted with a buffer solution for sample dilution [63 mM Tris (pH. 6.8), 10% glycerol, 2% SDS, 0.0013% bromophenol blue, and 5% β-mercaptoethanol], and then electrophoresed on a 8% or 10% gel in an electrode buffer solution (1 l of the solution contained 15 g of Tris, 72 g of glycerin, and 5 g of SDS).”

c1cc(-c2cnn3cc(-c4ccc(OCCN5CCCCC5)cc4)cnc23)ccn1 [Compound C] was tested, and the “SREBP-1C expression inhibition due to MBX2982 upon AMPK inhibitor treatment” value (SREBP-1c; 3 μM MBX2982 plus Compound C) was “recovered”.
With CC(C)c1noc(N2CCC(COc3ccc(-c4ccc(S(C)(=O)=O)cc4)nc3)CC2)n1 [GSK1292263, 3-isopropyl-5-(4-(((6-(4-(methylsulfonyl)phenyl)pyridin-3-yl)oxy)methyl)piperidin-1-yl)-1,2,4-oxadiazole] the “activity of SREBP-1c” value [1] was “inhibited”, the “expression of GPR119” value [1] was “increased” and the “expression of acetyl CoA carboxylase (ACC)” value [1] was “inhibited”. For the same molecule, the “expression of fatty acid synthase (FAS)” value [1] was “inhibited”, the “expression of stearoyl-CoA desaturase (SCD)” value [1] was “inhibited” and the fatty liver development [2] was “completely inhibited”.
In the case of O=S(=O)(NCCNC/C=C/c1ccc(Br)cc1)c1cccc2cnccc12 [H-89], the “function of the GPR119 ligand affecting SREBP-1C upon PKA inhibitor treatment” value (SREBP-1c; 3 μM GPR119 ligand plus H-89) is reported as “not affected”.
In the case of O=S(=O)(c1ccccc1)N(CC(F)(F)F)c1ccc(C(O)(C(F)(F)F)C(F)(F)F)cc1 [T0901317, N-(2,2,2-Trifluoroethyl)-N-[4-[2,2,2-trifluoro-1-hydroxy-1-(trifluoromethyl)ethyl]phenyl]benzenesulfonamide], the “mRNA expression level of SCD-1” value (SCD-1 mRNA) is reported as “increased”, the “expression level of SREBP-1c” value (SREBP-1c protein [3]) is reported as “greatly increases” and the “mRNA expression level of FAS” value (FAS mRNA) is reported as “increased”. For the same molecule, the “expression level of SREBP-1c” value (SREBP-1c protein [4]) was “greatly increases”.
